The values below are quoted from earlier work in US10945989B2, “Perinatal treatment with a flavonoid agonist of the TrkB receptor for BDNF rescues neurogenesis and behavior in the Ts65Dn mouse model of DS” (ALMA MATER STUDIORUM—Universita' di Bologna, priority 2017, dated 2021).

This data set concerns Ts65Dn mouse model of DS. The settings on record: perinatal treatment, Bianchi et al., 2010b; Guidi et al., 2014; cited from earlier work.

For `CNCCC(Oc1ccc(C(F)(F)F)cc1)c1ccccc1` (stereo not shown) [fluoxetine], the “brain development and cognitive performance” value is “fully restores brain development and cognitive performance”.
